Data as given in patent US8679459B2, “B ring reduced-D ring oxidized tetrapyrrolic photosensitizers for photodynamic therapy and tumor imaging” (Health Research, Inc., priority 2008, dated 2014).

Key:
Colon-26 cells = test: In vitro photosensitizing efficacy (MTT assay); format: cell-based; conditions: for in vitro photosensitizing efficacy among all the compounds tested (fraction survival vs. light dose): 24 h incubation, light 0-2 J/cm^2, MTT; for PDT efficacy compared to the free base analogs: In(III) complex vs. free base
Procedure: In graphs A-E, Y=fraction surviving and X=Light dose in J/cm^2. The numbers in the legends refer to compound number in FIGS. 7-12.
In vitro Photosensitizing Efficacy (MTT Assay]: Colon-26 cells were grown in α-DMEM with 10% fetal calf serum, and penicillin and streptomycin. Cells were maintained in 5% CO2 and 95% air at 100% humidity. For phototoxicity studies, cells were placed in 96-well plates at a density of 5×10^4 cells/well, in complete medium. 24 h later, compounds were added at variable concentration. After 24 incubation in the dark at 37° C., the cells were irradiated with a laser light from an argon pumped dye laser using flunces of 0-2 J/cm^2 at a dose of 5.6 mW/cm^2. After PDT, the cells were washed once, placed in complete medium, and incubated for 48 h. Cells were incubated with 10 μL/well of 4 mg/mL MTT for the final 4 h. The MTT-containing medium was removed, and 100 μL DMSO was added to solubilize the formazan crystals. The absorbance of the wells was read on a microtiter plate reader at a wavelength of 560 nm.^10 The results were plotted as fraction survival vs. the light dose used at the same concentrations. […] These compounds are currently being evaluated for in vivo efficacy, where the pharmacokinetic and the pharmacodynamic properties of the molecules will have a significant impact in efficacy.

[1] = earlier work; cited from earlier work

In the case of CC[C@H]1/C2=C/c3c(C)c4c5[n]3[In]([Cl])[n]3/c(c(C)c(C(C)=O)/c3=C/C(=N2)[C@@H]1C)=C\C1=NC(=C\5CC4=O)/C(CCC(=O)OC)=C1C [compound 22], the “in vitro photosensitizing efficacy among all the compounds tested (fraction survival vs. light dose)” value (Colon-26 cells) was “most effective” and the “PDT efficacy compared to the free base analogs” value (Colon-26 cells) was “enhanced PDT efficacy”.

For “3-(1-hexyloxyethyl)-3-devinyl-pyropheophorbide-a [compound 3a]”, the “PDT activity among alkyl ether analogs of pyropheophorbide-a” value [1] is listed as “most effective”.

For CC[C@H]1/C2=C/c3c(C)c4c5[n]3[In]([Cl])[n]3/c(c(C)c(C(C)=O)/c3=C/C(=N2)[C@@H]1C)=C\C1=NC(=C\5CC4=O)/[C@@H](CCC(=O)OC)[C@@H]1C [compound 23], the “in vitro photosensitizing efficacy among all the compounds tested (fraction survival vs. light dose)” value (Colon-26 cells) was “most effective”.

For CCCCCCOC(C)c1c(C)/c2[n]3/c1=C\C1=NC(=C\c4c(C)c5c([n]4[In]3[Cl])/C(=C3N=C(\C=2)C(C)=C\3CCC(=O)OC)CC5=O)/[C@H](CC)[C@H]1C (some centres unmarked) [compound 24], the “PDT efficacy compared to the free base analogs” value (Colon-26 cells) was “enhanced PDT efficacy”.
